{"source": "patent US8568987B2", "about": "“Chemotaxis diagnostic” (Glycotope Biotechnology GmbH, priority 2000, dated 2013)", "key": {"[1]": {"tested_on": "neutrophilic granulocytes (LECAM-1 surface expression)", "assay": "Granulocyte chemotaxis test from leukocyte-rich plasma: LECAM-1 surface expression by flow-through cytometry", "format": "cell-based, human", "details": "5×10^−8 M fMLP vs negative control containing PBS; FIG. 3A/3B", "experimental": "(§1) 1 ml of Ficoll (Ficoll separation medium, from Seromed, order No. L6113 (endotoxin-low)) is initially introduced in an Eppendorf tube and 1 ml of fresh (preferably not older than 8 hours) heparinized whole blood (endotoxin-low heparin) is carefully overlaid at room temperature. The mixture is allowed to stand at room temperature until a marked phase separation can be observed. After a spontaneous sedimentation, normally lasting for about 40 minutes at room temperature, the leukocytes and platelets remain above the Ficoll phase while the erythrocytes have sedimented to the bottom. The sinking of the erythrocytes occurs quite suddenly after from approx. 30 to 40 minutes. […]\n(§2) 20 μl of LDS (laser dye LDS 751, from Exiton or Styryl 8, from Lambda Physik, Göttingen; for excluding the erythrocytes, 1 mg/ml, prediluted 1:50 in PBS) are added to the solution. […] The measurement is stopped after in each case 1000 or 2000 latex particles have been recorded, such that approx. 5000-15 000 neutrophils have been counted. […] The sheath fluid employed is FACS Flow (from Becton Dickinson, order No. 342003) or another carrier fluid having a low intrinsic fluorescence. […] The calibration and quality control for fluorescence measurements (intensity per cell) are carried out using the Calibrites. […]"}, "[2]": {"tested_on": "neutrophilic granulocytes", "assay": "Granulocyte chemotaxis test: number of cells migrated through porous membrane, counted against beads by flow-through cytometry", "format": "cell-based, human", "details": "5×10^−8 M fMLP vs negative control containing PBS; FIG. 3B", "experimental": "as §1, §2"}}}
{"substance": "N-formyl-Met-Leu-Phe [fMLP]", "values": [{"measurement": "decrease in the surface expression of the cell adhesion molecule LECAM-1", "setting": "[1]", "value": "about one order of magnitude"}, {"measurement": "number of neutrophilic granulocyte cells which have migrated through the membrane, in relation to constant number of beads", "setting": "[2]", "value": "marked increase"}]}
